Test results published in US20140350050A1, “PYRIDINE COMPOUNDS AS INHIBITORS OF KINASE” (TELIGENE LTD., priority 2011, published 2014).

Assays:
[1] = molecular target: ALK kinase (Homo sapiens, UniProt Q9UM73); experiment: ALK kinase assay; type: biochemical; conditions: ALK kinase assay; read-out: ALK (IC50 grading)
Protocol: An in vitro assay which determines the ability of a test compound to inhibit ALK kinase. a) kinase-tagged T7 phage strains were prepared in an E. coli host derived from the BL21 strain. E. coli were grown to log-phase and infected with T7 phage and incubated with shaking at 32° C. until lysis. The lysates were centrifuged and filtered to remove cell debris. The remaining kinases were produced in HEK-293 cells and subsequently tagged with DNA for qPCR detection. […] The liganded beads were blocked with excess biotin and washed with blocking buffer (SeaBlock (Pierce), 1% BSA, 0.05% Tween 20, 1 mM DTT) to remove unbound ligand and to reduce non-specific binding. […] All reactions were performed in polystyrene 96-well plates in a final volume of 0.135 ml. […] The kinase concentration in the eluates was measured by qPCR. […]
b) An alternative method to conduct the kinase assay with the following condition and procedure: Reagent: Base Reaction buffer; 20 mM Hepes (pH 7.5), 10 mM MgCl2, 1 mM EGTA, 0.02% Brij35, 0.02 mg/ml BSA, 0.1 mM Na3VO4, 2 mM DTT, 1% DMSO.
1. Preparing indicated substrate in freshly prepared Base Reaction Buffer
2. Delivering any required cofactors to the substrate solution above
3. Delivering indicated kinase into the substrate solution and gently mix
4. Delivering compounds in DMSO into the kinase reaction mixture
5. Delivering ^33P-ATP (specific activity 0.01 μCi/μl final) into the reaction mixture to initiate the reaction.
6. Incubating kinase reaction for 120 min. at room temperature
7. Reactions are spotted onto P81 ion exchange paper (Whatman #3698-915)
8. Washing filters extensively in 0.75% Phosphoric acid. […]
c) An alternative method to conduct the kinase assay with the following condition and procedure: The assay was performed using Kinase-Glo Plus luminescence kinase assay kit (Promega). It measures kinase activity by quantitating the amount of ATP remaining in solution following a kinase reaction. The luminescent signal from the assay is correlated with the amount of ATP present and is inversely correlated with the amount of kinase activity.
The compound were diluted in 10% DMSO and 5 μl of the dilution was added to a 50 μl reaction so that the final concentration of DMSO is 1% in all of reactions. All of the enzymatic reactions were conducted at 30° C. for 40 minutes. The 50 μl reaction mixture contains 40 mM Tris, pH 7.4, 10 mM MgCl2, 0.1 mg/ml BSA, 1 mM DTT, 0.2 mg/ml substrate peptide, 10 μM ATP and ALK (Table 2.3.1). After the enzymatic reaction, 50 μl of Kinase-Glo Plus Luminescence kinase assay solution (Promega) was added to each reaction and incubate the plate for 5 minutes at room temperature. Luminescence signal was measured using a BioTek Synergy 2 microplate reader. ALK activity assays were performed in duplicate at each concentration. The luminescence data were analyzed using the computer software, Graphpad Prism. The difference between luminescence intensities in the absence of ALK (Lut) and in the presence of ALK (Luc) was defined as 100% activity (Lut−Luc). Using luminescence signal (Lu) in the presence of the compound, % activity was calculated as % activity={(Lut−Lu)/(Lut−Luc)}×100%, where Lu=the luminescence intensity in the presence of the compound (all percent activities below zero were shown zero in the table). The values of % activity versus a series of compound concentrations were then plotted using non-linear regression analysis of Sigmoidal dose-response curve generated with the equation Y=B+(T−B)/1+10^((Log EC50−X)×Hill Slope), where Y=percent activity, B=minimum percent activity, T=maximum percent activity, X=logarithm of compound and Hill Slope=slope factor or Hill coefficient. The IC50 value was determined by the concentration causing a half-maximal percent activity.

[2] = molecular target: T1, BAF3-EML4-ALK stable cell line (Homo sapiens, UniProt Q9UM73); experiment: BAF3-EML4-ALK cell assay (MTT cell proliferation); type: cell-based; conditions: 72 hours, read-out: BAF3-EML4-ALK Cell (IC50 grading)
T1 construct: fused on or other part: Q9HC35 (Echinoderm microtubule-associated protein-like 4)
Protocol: BAF3-EML4-ALK Cell Assay:
A method of establishing BAF3-EML4-ALK stable cell line: Transfer 5×10^6 BAF3 cells to a new tube, pellet the cells, and remove PBS by aspiration.; Resuspend the cells in 1 ml electroporation buffer, this provides 5×10^6 of cells; Transfer 200 μl of cell suspension to EP tube, add 5 ug DNA, flip and place it on ice for 10 min; Pipet the 200 μl cell suspension into 2 mm electroporation cuvette; Place the cuvette into shockpod, close the lid, and press the PULSE button; Set parameters: Expentional decay pulse: VOL=200 V; CAP=900 uF, RES=1000Ω; Transfer all cells from electroporation cuvette to 6 well plate, adding 2 ml DMEMF12 containing 5 ng/ml IL3, 24 h later, replace the medium with DMEM F12 containing 2 μg/ml blasticidin S and 5 ng/ml IL3, maintain for 3 days; change the medium with DMEM F12 containing 2 ug/ml blasticidin S and 2.5 ng/ml IL3, maintain 3 days; change the medium with DMEM F12 containing 2 ug/Ml blasticidin S, maintain to culture.
MTT Cell proliferation assay: 5×10^3 per well cell with 100 μl medium was seeded in 96-well plate; 24 hours later, 100 μl fresh medium with various concentration of compounds; After the cells were treated by compounds for 72 hours, add 20 μl MTT (5 mg/ml) into each wells; The plate is incubated at 37° C. for 4 hours; Centrifuge the plate at 800 g for 10 mins, Aspirated the medium, add 150 μl DMSO into each well. Shake plates gently for 10 mins, Measure the absorbance at 570 nm on plate reader; IR=(WC−WT)/WC.

[3] = PK (pharmacokinetic) study in rat, cassette dosing; type: in vivo; conditions: male, Wistar, plasma
Protocol: A representative protocol for the PK (pharmacokinetic) is as followed: Animals used were Wistar rat, male and weight about 300-359 grams. Compound 21 and 22 were given either IV or oral to the same animals by cassette dosing. The dose for each compound is 1 mg/kg (volume 5 ml/kg) IV and 2 mg/kg (volume 10 ml/kg) oral. The formulation for IV was in PBS, the pH is adjusted by dilute HCl until compounds were totally dissolved. 0.5% Na-CMC suspension was used for the oral formulation. Sample collection: for IV route, plasma sample were collected at the time point 0.083, 0.25, 0.5, 1, 1.5, 2, 4, 6, 8, 12, 24 h. For oral route, plasma sample were collected at the time point 0.167, 0.33, 0.5, 1, 2, 4, 6, 8, 12, 24 h. Analysis: LC-MS/MS is used to calculate PK parameters: t1/2, tmax, Cmax, Vss and AUC etc.

Chain of ALK kinase (Q9UM73 19-1620): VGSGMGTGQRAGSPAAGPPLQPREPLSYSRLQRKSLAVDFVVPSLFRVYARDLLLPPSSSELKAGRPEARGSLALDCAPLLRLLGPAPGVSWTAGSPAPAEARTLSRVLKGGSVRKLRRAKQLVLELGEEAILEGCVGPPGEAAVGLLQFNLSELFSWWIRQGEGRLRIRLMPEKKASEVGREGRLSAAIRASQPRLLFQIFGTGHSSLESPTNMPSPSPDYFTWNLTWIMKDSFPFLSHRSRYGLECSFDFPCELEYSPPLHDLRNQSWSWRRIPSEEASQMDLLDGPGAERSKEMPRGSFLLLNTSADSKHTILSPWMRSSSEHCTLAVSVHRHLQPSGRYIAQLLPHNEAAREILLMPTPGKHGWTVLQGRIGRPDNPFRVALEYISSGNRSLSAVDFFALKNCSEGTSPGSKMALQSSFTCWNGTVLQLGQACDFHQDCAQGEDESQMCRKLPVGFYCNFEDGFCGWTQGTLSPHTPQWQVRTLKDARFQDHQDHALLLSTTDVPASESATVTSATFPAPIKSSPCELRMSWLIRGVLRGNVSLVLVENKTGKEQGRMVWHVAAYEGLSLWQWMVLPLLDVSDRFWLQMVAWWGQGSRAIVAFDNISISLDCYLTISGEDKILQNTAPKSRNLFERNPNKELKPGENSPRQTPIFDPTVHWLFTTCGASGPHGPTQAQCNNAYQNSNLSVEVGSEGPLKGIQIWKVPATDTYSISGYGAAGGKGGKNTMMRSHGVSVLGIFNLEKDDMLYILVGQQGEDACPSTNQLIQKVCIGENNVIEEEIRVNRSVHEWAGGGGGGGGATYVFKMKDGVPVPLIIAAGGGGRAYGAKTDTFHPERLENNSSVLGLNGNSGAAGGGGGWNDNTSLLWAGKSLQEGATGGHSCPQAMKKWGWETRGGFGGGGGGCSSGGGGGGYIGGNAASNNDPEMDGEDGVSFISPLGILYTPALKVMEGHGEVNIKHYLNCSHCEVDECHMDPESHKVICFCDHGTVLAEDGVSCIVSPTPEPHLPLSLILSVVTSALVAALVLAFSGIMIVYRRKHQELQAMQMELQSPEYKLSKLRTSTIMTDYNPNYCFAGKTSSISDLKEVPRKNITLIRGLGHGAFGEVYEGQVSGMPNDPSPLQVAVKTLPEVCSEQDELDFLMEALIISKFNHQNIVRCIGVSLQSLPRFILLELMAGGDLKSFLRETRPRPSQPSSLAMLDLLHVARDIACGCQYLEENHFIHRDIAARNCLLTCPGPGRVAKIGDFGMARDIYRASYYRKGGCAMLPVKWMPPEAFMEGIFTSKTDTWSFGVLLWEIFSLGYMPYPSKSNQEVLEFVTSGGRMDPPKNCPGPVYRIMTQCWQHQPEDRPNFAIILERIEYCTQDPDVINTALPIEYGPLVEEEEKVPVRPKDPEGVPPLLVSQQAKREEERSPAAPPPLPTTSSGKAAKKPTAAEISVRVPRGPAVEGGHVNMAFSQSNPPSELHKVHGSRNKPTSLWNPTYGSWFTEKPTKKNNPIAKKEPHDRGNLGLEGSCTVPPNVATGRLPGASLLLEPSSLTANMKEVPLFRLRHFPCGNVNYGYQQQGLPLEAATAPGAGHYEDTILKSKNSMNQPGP
T1 sequence (Q9UM73 whole entry, change not shown, the tested form may be a part): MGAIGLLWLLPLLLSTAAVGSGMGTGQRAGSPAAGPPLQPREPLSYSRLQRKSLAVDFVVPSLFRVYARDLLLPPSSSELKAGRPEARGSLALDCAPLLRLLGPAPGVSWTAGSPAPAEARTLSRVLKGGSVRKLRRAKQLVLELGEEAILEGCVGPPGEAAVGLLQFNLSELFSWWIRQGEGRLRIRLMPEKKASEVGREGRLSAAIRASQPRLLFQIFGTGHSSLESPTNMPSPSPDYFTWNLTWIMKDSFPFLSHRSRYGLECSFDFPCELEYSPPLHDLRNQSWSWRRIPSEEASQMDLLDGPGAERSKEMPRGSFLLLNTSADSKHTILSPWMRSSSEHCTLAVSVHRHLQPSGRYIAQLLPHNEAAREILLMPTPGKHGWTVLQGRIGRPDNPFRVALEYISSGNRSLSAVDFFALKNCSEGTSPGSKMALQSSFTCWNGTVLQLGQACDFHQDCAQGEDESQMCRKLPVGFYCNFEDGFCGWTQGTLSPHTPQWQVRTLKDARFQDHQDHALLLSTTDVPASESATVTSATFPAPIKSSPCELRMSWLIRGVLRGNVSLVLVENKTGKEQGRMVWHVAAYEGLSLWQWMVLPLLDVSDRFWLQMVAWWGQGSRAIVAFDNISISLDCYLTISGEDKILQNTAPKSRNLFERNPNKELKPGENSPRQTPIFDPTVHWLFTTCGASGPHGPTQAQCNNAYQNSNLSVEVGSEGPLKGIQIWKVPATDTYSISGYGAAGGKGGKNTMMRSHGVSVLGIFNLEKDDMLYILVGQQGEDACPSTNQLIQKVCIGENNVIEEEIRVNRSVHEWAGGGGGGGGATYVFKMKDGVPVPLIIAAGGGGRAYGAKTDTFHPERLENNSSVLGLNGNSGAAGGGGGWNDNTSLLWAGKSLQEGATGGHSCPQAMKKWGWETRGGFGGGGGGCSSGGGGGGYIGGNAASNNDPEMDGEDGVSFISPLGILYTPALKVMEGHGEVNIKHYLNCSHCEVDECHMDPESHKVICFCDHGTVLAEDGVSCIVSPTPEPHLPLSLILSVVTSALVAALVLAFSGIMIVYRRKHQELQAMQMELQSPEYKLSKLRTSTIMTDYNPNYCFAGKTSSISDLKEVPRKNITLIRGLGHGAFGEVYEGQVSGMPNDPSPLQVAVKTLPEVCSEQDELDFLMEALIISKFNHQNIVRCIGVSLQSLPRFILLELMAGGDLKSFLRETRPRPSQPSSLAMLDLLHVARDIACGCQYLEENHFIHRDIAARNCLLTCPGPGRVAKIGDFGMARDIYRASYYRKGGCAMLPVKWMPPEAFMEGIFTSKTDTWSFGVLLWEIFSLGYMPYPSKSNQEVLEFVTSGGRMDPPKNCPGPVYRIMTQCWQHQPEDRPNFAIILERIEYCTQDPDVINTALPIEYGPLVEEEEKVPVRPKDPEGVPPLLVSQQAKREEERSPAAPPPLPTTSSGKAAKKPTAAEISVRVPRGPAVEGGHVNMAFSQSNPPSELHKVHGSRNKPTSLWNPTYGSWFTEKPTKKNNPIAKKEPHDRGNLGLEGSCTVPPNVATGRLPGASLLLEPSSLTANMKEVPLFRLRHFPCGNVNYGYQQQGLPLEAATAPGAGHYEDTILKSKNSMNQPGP

IC50 [1] [nM] | GI50 [2] [nM] | SMILES | also measured
100 to 1000 | ≤ 1000 | CCN1CCC(n2cc(-c3cnc(N)c(O[C@@H](C)c4c(Cl)ccc(F)c4Cl)c3)cn2)CC1 [Compound 16, (S)-3-(1-(2,6-dichloro-3-fluorophenyl)ethoxy)-5-(1-(1-ethylpiperidin-4-yl)-1H-pyrazol-4-yl)pyridin-2-amine] | –
≤ 100 | ≤ 100 | CCN1CCC(n2cc(-c3cnc(N)c(OC(C)c4c(Cl)ccc(F)c4Cl)c3)cn2)CC1 (centres unmarked) [Compound 7, 3-(1-(2,6-dichloro-3-fluorophenyl)ethoxy)-5-(1-(1-ethylpiperidin-4-yl)-1H-pyrazol-4-yl)pyridin-2-amine] | –
100 to 1000 | 100 to 1000 | CCN1CCC(n2cc(-c3cnc(NC(C)=O)c(OC(C)c4c(Cl)ccc(F)c4Cl)c3)cn2)CC1 (centres unmarked) [Compound 10, N-(3-(1-(2,6-dichloro-3-fluorophenyl)ethoxy)-5-(1-(1-ethylpiperidin-4-yl)-1H-pyrazol-4-yl)pyridin-2-yl)acetamide] | –
100 to 1000 | ≤ 1000 | CC(=O)Nc1ncc(-c2cnn(C3CCNCC3)c2)cc1O[C@@H](C)c1c(Cl)ccc(F)c1Cl [Compound 13, (S)—N-(3-(1-(2,6-dichloro-3-fluorophenyl)ethoxy)-5-(1-(piperidin-4-yl)-1H-pyrazol-4-yl)pyridin-2-yl)acetamide] | –
≤ 1000 | ≤ 1000 | CCCNc1ncc(-c2cnn(C3CCNCC3)c2)cc1OC(C)c1c(Cl)ccc(F)c1Cl (centres unmarked) [Compound 12, 3-(1-(2,6-dichloro-3-fluorophenyl)ethoxy)-5-(1-(piperidin-4-yl)-1H-pyrazol-4-yl)-N-propylpyridin-2-amine] | –
≤ 100 | ≤ 100 | C[C@@H](Oc1cc(-c2cnn(C3CCN(C)CC3)c2)cnc1N)c1c(Cl)ccc(F)c1Cl [Compound 19, (R)-3-(1-(2,6-dichloro-3-fluorophenyl)ethoxy)-5-(1-(1-methylpiperidin-4-yl)-1H-pyrazol-4-yl)pyridin-2-amine] | –
≤ 1000 | ≤ 1000 | CCNc1ncc(-c2cnn(C3CCNCC3)c2)cc1OC(C)c1c(Cl)ccc(F)c1Cl (centres unmarked) [Compound 11, 3-(1-(2,6-dichloro-3-fluorophenyl)ethoxy)-N-ethyl-5-(1-(piperidin-4-yl)-1H-pyrazol-4-yl)pyridin-2-amine] | –
≤ 100 | ≤ 100 | CC(=O)Nc1ncc(-c2cnn(C3CCNCC3)c2)cc1OC(C)c1c(Cl)ccc(F)c1Cl (centres unmarked) [Compound 9, N-(3-(1-(2,6-dichloro-3-fluorophenyl)ethoxy)-5-(1-(piperidin-4-yl)-1H-pyrazol-4-yl)pyridin-2-yl)acetamide] | –
100 to 1000 | ≤ 1000 | [2H]C([2H])([2H])N1CCC(n2cc(-c3cnc(N)c(O[C@@H](C)c4c(Cl)ccc(F)c4Cl)c3)cn2)CC1 [Compound 15, (S)-3-(1-(2,6-dichloro-3-fluorophenyl)ethoxy)-5-(1-(1-d3-methyl-piperidin-4-yl)-1H-pyrazol-4-yl)pyridin-2-amine] | –
100 to 1000 | ≤ 1000 | [2H]C([2H])([2H])C([2H])([2H])N1CCC(n2cc(-c3cnc(N)c(O[C@@H](C)c4c(Cl)ccc(F)c4Cl)c3)cn2)CC1 [Compound 17, (S)-3-(1-(2,6-dichloro-3-fluorophenyl)ethoxy)-5-(1-(1-d5-ethyl-piperidin-4-yl)-1H-pyrazol-4-yl)pyridin-2-amine] | –
≤ 100 | ≤ 100 | CCN1CCC(n2cc(-c3cnc(N)c(O[C@H](C)c4c(Cl)ccc(F)c4Cl)c3)cn2)CC1 [Compound 21, (R)-3-(1-(2,6-dichloro-3-fluorophenyl)ethoxy)-5-(1-(1-ethylpiperidin-4-yl)-1H-pyrazol-4-yl)pyridin-2-amine] | AUC(0-inf) ([3]; IV cassette 1 mg/kg): 443 ng·h/mL; AUC(0-t) ([3]; IV cassette 1 mg/kg): 442 ng·h/mL; Cmax ([3]; IV cassette 1 mg/kg): 317 ng/mL; MRT ([3]; IV cassette 1 mg/kg): 2.89 h; Tmax ([3]; IV cassette 1 mg/kg): 0.083 h; clearance ([3]; IV cassette 1 mg/kg): 37.7 mL/min/kg; half-life ([3]; IV cassette 1 mg/kg): 2.89 h; AUC(0-inf) ([3]; oral cassette 2 mg/kg): 154 ng·h/mL; AUC(0-t) ([3]; oral cassette 2 mg/kg): 148 ng·h/mL; Cmax ([3]; oral cassette 2 mg/kg): 22.9 ng/mL; MRT ([3]; oral cassette 2 mg/kg): 4.97 h; Tmax ([3]; oral cassette 2 mg/kg): 4 h; half-life ([3]; oral cassette 2 mg/kg): 2.99 h; bioavailability ([3]; oral cassette 2 mg/kg vs IV 1 mg/kg, read-out: F (bioavailability)): 16.8%
100 to 1000 | ≤ 1000 | C[C@H](Oc1cc(-c2cnn(C3CCN(C)CC3)c2)cnc1N)c1c(Cl)ccc(F)c1Cl [Compound 14, (S)-3-(1-(2,6-dichloro-3-fluorophenyl)ethoxy)-5-(1-(1-methylpiperidin-4-yl)-1H-pyrazol-4-yl)pyridin-2-amine] | –
